Experimental data as given in paper PMC9814929, “Control over the fibrillization yield by varying the oligomeric nucleation propensities of self-assembling peptides” (Communications Chemistry, 2020).
Several values for one entry are separate records, joined by “and”; a condition that tells them apart may be missing. Equal values may be shown once. Peptide text beside a SMILES is read from it.

What was measured:
[1] = larger oligomers or early nucleated structures; 1 µM Cy5-SLP in 4 mM unlabeled SLP, PBS pH 7.4; early assembly phase, measured after 5 min of preparatory work
Method: To validate this hypothesis, we performed fluorescence correlation spectroscopy (FCS) measurements to study the diffusion properties of SLPs in the early phase of self-assembly. […] To explore these size differences in more detail, we fitted the FCS data with a higher-order fitting model. Maximum entropy method (MEM) was chosen to account for the polydispersity of the oligomers. Each condensed fraction was treated as one quasi-continuous distribution, so as to provide the widest data-complying size distribution (least chance of overinterpretation)[34].
The measurement concentration was 4 mM of SLPs in PBS (pH 7.4) of which 1 out of 4000 peptides was labeled with Cy5. The FCS autocorrelation curves were fitted with the maximum entropy method (MEM) for higher-resolution analysis on size distribution, indicated by the solid lines. c The size distribution of SLPs obtained from MEM analysis of the FCS measurements. The dashed line at D = 150 µm^2/s indicates the cut-off size between monomeric (D > 150) and oligomer (D < 150) populations.
Fluorescence time traces were obtained by focusing a 640-nm laser line through a water immersion objective lens (×60 Plan Apo VC, N.A. 1.2, Nikon, Japan) at ~50 µm above the bottom of the glass-bottom 96-well plate (Grainer Bio-one, Frickenhausen, Germany). […] After 5 min of preparatory work, 50 µl of sample was measured with confocal microscope (Nikon C1). […]

[2] = not given; remark: listed apart in the source
[3] = not given; remark: listed apart in the source
[4] = not given; remark: listed apart in the source
[5] = Solid-state NMR population profiling (dipolar CP and scalar INEPT spectra) of fibril and non-fibril assemblies; type: physicochemical; details: 4 mM, pH 7.4 in PBS, 3 days, 500 MHz, 10 kHz MAS, 280 K; for normalization scaling factor of the dipolar ssNMR spectrum relative to SLP1 (higher factor = lower fibrillization yield): dipolar CP spectra report on rigid 1D nanofibers
Method: As a next step, we hypothesized that higher-resolution methods might disclose further differences in the properties of the SLP assemblies. To examine our hypothesis, we profiled the SLP1–4 assemblies using ssNMR spectroscopy. Using the same conditions (4 mM, pH 7.4 in PBS for 3 days), we acquired the so-called dipolar cross-polarization (CP) ssNMR spectra and so-called scalar INEPT ssNMR spectra on isotopically (^13C, ^15N) labeled SLP assemblies (see “Methods”), which enables to quantify rigid and mobile populations of peptide assemblies in the systems[36] (Fig. 3b). While dipolar signals report on immobilized peptides in 1D assemblies, scalar spectra report on peptides with fast pico-to-nanosecond dynamics, which can either be monomeric peptides or micellar oligomers[16],[32]. We specifically labeled residues in the hydrophobic tail (Val1–2 and Leu6–7) that are responsible for the self-assembly. […] The intensity of the dipolar spectra correlates with the amount of rigid cross-β structure present in the system. We observe that the intensities of dipolar signal of SLP1 is larger than SLP2 (normalization scaling factor of 10, Fig. 3b) and SLP3 (normalization scaling factor of 25, Fig. 3b), which indicate the relative fibrillization yield of SLP1 > SLP2 > SLP3. […]
1D CP[48] and scalar[49] ssNMR experiments to probe rigid and mobile populations, respectively, were acquired at 11.7 T magnetic field (500 MHz (^1H frequency) with 10 kHz magic angle spinning (MAS) and 280 K sample temperature. 2D ^13C–^13C and 2D CαN for peptide assignments were also performed at similar conditions. 2D Ca(N)H experiments for ^15NT1rho relaxation studies were performed at 950 MHz magnetic field strength with 60 kHz. ^13C was detected in the indirect dimension because of spectral overlap in the ^15N dimension. The 2D ^13C–^13C PARIS[37] experiment with the CPMAS CryoProbe[39] to measure intermolecular peptide contacts was performed at 600 MHz and 12 kHz MAS using 700 ms magnetization transfer and a ^1H recoupling amplitude of 6 kHz.

[6] = Negative-staining TEM and AFM of the mesoscale structure of SLP assemblies; type: physicochemical; details: 4 mM, pH 7.4 in PBS
Method: Next, we investigated the downstream effect of the differences in size of oligomeric particles and β-sheet propensities on the supramolecular self-assembly. One of the pivotal events in defining supramolecular self-assembly is whether nucleation has taken place or not. This can be identified by the mesoscale structures of the assemblies after certain time of incubation, e.g., the formation of one-dimensional (1D) nanostructures is indicative that nucleation has taken place. We used negative-staining transmission electron microscopy (TEM) and atomic force microscopy (AFM) to compare SLPs that were assembled under the same preparation protocol (4 mM, pH 7.4 in phosphate-buffered saline (PBS) for 3 days). We could indeed detect markedly different mesoscale structures in these SLP systems (Figs. 3a and S1). […] Based on these mesoscale evidences, we can deduce that nucleation occurred in SLP1–3, however, not in SLP4.
Peptide assemblies were prepared by dissolving peptide powders in nine volumes of 10 mM sodium hydroxide in 1.5 ml Eppendorf tube. One volume of PBS (10×) was added to make sample of pH 7.4 ± 0.2 and a final concentration of 4 mM. Solution was vortexed for 5 s and incubated statically for 3 days at room temperature before proceeding for measurements.
Samples prepared at 4 mM were diluted tenfold with 1× PBS. Formvar/carbon-coated 400 mesh copper grid (Polysciences Inc.) was placed on top of a droplet of 20 μl of diluted samples. After 2-min incubation, the grid was washed three times with […] filtered mili-Q water and blotted dry with filter paper. Negative staining was performed for 1 min with 2% w/v uranyl acetate in water. Staining solution was blotted off with filter paper. […]
AFM micrographs were recorded using a Bruker MultiMode 8 (ScanAsyst Air silicon nitride probes, spring constant 0.4 N/m, nominal tip radius 2 nm) and post-processed by a plane subtraction and line alignment. Three different spots (one in main text, two in Fig. S3) were measured on the sample to confirm uniformity and get a comprehensive view of the sample’s features.

diameter of the assembled nanostructures ([6]; TEM/AFM, 3 days)	nucleation event deduced from mesoscale structure ([6]; TEM/AFM, 3 days)	dipolar ssNMR signals (immobile assemblies) [5]	Compound	diffusion coefficient of the SLP population (MEM analysis of FCS) [1]	nanofiber diameter	oligomer diffusion coefficient, fold smaller than SLP3–4 [2]	nanofiber length [3]	XRD cross-β reflection [4]	normalization scaling factor of the dipolar ssNMR spectrum relative to SLP1 (higher factor = lower fibrillization yield) [5]	mesoscale structure of the assemblies (TEM, AFM) ([6]; 3 days static at room temperature)
			CC[C@H](C)[C@H](NC(=O)[C@@H](NC(=O)[C@@H](NC(=O)[C@@H](NC(=O)[C@@H](NC(C)=O)C(C)C)C(C)C)C(C)C)[C@@H](C)O)C(=O)N[C@@H](CC(C)C)C(=O)N[C@@H](CC(C)C)C(=O)N[C@@H](CCC(=O)O)C(=O)N[C@@H](CCC(=O)O)C(=O)O [SLP1] (Ac-VVVTILLEE-OH)	0.1–1 µm^2/s	10 nm	10 times and 10 fold	> 1000 nm	4.7 Å		
			CC(=O)N[C@H](C(=O)N[C@H](C(=O)N[C@H](C(=O)N[C@H](C(=O)N[C@@H](CC(C)C)C(=O)N[C@@H](CC(C)C)C(=O)N[C@@H](CC(C)C)C(=O)N[C@@H](CCC(=O)O)C(=O)N[C@@H](CCC(=O)O)C(=O)O)[C@@H](C)O)C(C)C)C(C)C)C(C)C [SLP2] (Ac-VVVTLLLEE-OH)				> 1000 nm	4.7 Å	10	
			CC[C@H](C)[C@H](NC(=O)[C@@H](NC(=O)[C@@H](NC(=O)[C@@H](NC(=O)[C@@H](NC(C)=O)C(C)C)C(C)C)C(C)C)[C@@H](C)O)C(=O)N[C@@H](CC(C)C)C(=O)N[C@@H](CC(C)C)C(=O)N[C@@H](CCC(=O)O)C(=O)N[C@@H](CCC(=O)O)C(=O)N[C@@H](CCC(=O)O)C(=O)O [SLP3] (Ac-VVVTILLEEE-OH)		10 nm		> 1000 nm	4.7 Å	25	
10–60 nm	no nucleation event has taken place	absent	CC(=O)N[C@H](C(=O)N[C@H](C(=O)N[C@H](C(=O)N[C@H](C(=O)N[C@@H](CC(C)C)C(=O)N[C@@H](CC(C)C)C(=O)N[C@@H](CC(C)C)C(=O)N[C@@H](CCC(=O)O)C(=O)N[C@@H](CCC(=O)O)C(=O)N[C@@H](CCC(=O)O)C(=O)O)[C@@H](C)O)C(C)C)C(C)C)C(C)C [SLP4] (Ac-VVVTLLLEEE-OH)							polydisperse zero-dimensional nanostructures
